Results as given in the NIST ThermoML archive (doi:10.1016/j.tca.2019.05.008).

Assays:
[1] = molar heat capacity at constant pressure; conditions: 101.33 kPa, Crystal, DSC
[2] = Fast Scanning Calorimeter Method

Cn1c(=O)c2[nH]cnc2n(C)c1=O [3,7-dihydro-1,3-dimethyl-1H-purine-2,6-dione]
[1]
Conditions | molar heat capacity at constant pressure [J/K/mol]
230 K | 159.6
240 K | 164.8
250 K | 170
260 K | 175.1
270 K | 180.2
280 K | 185.3
290 K | 190.3
300 K | 195.4
310 K | 200.4
320 K | 205.3
330 K | 210.3
340 K | 215.2
350 K | 220.1
360 K | 224.9
370 K | 229.7
380 K | 234.5
390 K | 239.3
400 K | 244
410 K | 248.7
420 K | 253.4

[2], Crystal
Conditions | vapor or sublimation pressure [kPa]
441.6 K | 0.0028
447.2 K | 0.0033
449.1 K | 0.0047
451 K | 0.0061
457 K | 0.0072
459 K | 0.0108
460.4 K | 0.0109
466.7 K | 0.0133
468.9 K | 0.0192
469.8 K | 0.021
476.5 K | 0.0261
478.7 K | 0.0365
479.2 K | 0.0409
486.2 K | 0.0532
496 K | 0.1094
498 K | 0.1408
498.5 K | 0.1485
505.7 K | 0.1888
507.4 K | 0.2298
508.3 K | 0.2823
515.5 K | 0.3649
516.8 K | 0.3867
518.2 K | 0.4909
525.2 K | 0.563
526.2 K | 0.8232
528.1 K | 0.8994
535 K | 1.001
537.9 K | 1.619

O=C1c2ccccc2C(=O)c2ccccc21 [9,10(9H,10H)-anthracenedione]
[1]
Conditions | molar heat capacity at constant pressure [J/K/mol]
230 K | 182.5
240 K | 188.9
250 K | 195.4
260 K | 201.9
270 K | 208.3
280 K | 214.8
290 K | 221.3
300 K | 227.8
310 K | 234.3
320 K | 240.8
330 K | 247.3
340 K | 253.8
350 K | 260.4
360 K | 266.9
370 K | 273.5
380 K | 280
390 K | 286.6
400 K | 293.2
410 K | 299.8
420 K | 306.4

[2], Crystal
Conditions | vapor or sublimation pressure [kPa]
422.8 K | 0.0135
427.7 K | 0.0152
429.2 K | 0.0165
432.2 K | 0.0209
437.4 K | 0.0345
439.1 K | 0.0354
441.6 K | 0.0381
447.2 K | 0.0511
448.9 K | 0.0693
451 K | 0.0839
457 K | 0.1042
458.8 K | 0.148
460.4 K | 0.1696
466.7 K | 0.1977
468.7 K | 0.2749
469.8 K | 0.2497
476.5 K | 0.3235
478.5 K | 0.487

Cn1c(=O)c2c(ncn2C)n(C)c1=O [caffeine]
[2], Crystal 1
Conditions | vapor or sublimation pressure [kPa]
394.7 K | 0.0031
398.4 K | 0.0035
399.8 K | 0.0039
404.1 K | 0.0067
408.2 K | 0.0092
409.7 K | 0.0099
413.5 K | 0.0116
417.9 K | 0.0158
419.5 K | 0.019
422.8 K | 0.023
427.7 K | 0.0336
429.4 K | 0.0376
432.2 K | 0.0467
437.4 K | 0.0651
439.3 K | 0.0736
441.6 K | 0.0874
447.2 K | 0.1252
449.1 K | 0.1611
451 K | 0.1622
457 K | 0.2346
459 K | 0.2609
460.4 K | 0.2914
466.7 K | 0.4121
468.9 K | 0.4821
469.8 K | 0.4864
476.5 K | 0.7169
478.7 K | 0.8343
479.2 K | 0.9112
486.2 K | 1.078
488.6 K | 1.415
